In experiment [1] the test system is Green Peach Aphid (Myzus Persicae). As to the kind of experiment: Insecticidal test for green peach aphid in foliar spray assay (col. MYZUPE). In kind it is in vivo. The settings on record: for pest or weed control at 200 ppm: Myzus persicae, 72 h, read-out: MYZUPE 200 ppm (Corrected % Control, rating). An outline of the steps:
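Cabbage seedlings with 2-3 true leaves, infested with 20-50 wingless adult and nymph aphids one day earlier, sprayed to runoff at 200 ppm (acetone/methanol stock diluted in 0.025% Tween 20), four pots per treatment. After 3 days at ~25 °C, 40% RH, live aphids counted; corrected % control versus solvent-sprayed plants.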

The test system of experiment [2] is Sweetpotato Whitefly-Crawler (Bemisia Tabaci). As to the kind of experiment: Insecticidal test for sweetpotato whitefly-crawler in foliar spray assay (col. BEMITA). In kind it is in vivo. The note with it: for pest or weed control at 200 ppm: Bemisia tabaci, read-out: BEMITA 200 ppm (Corrected % Control, rating). An outline of the steps:
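Cotton plants (one 3-5 cm true leaf) infested with whitefly eggs (100-300/plant), held 5-6 days at 82° F, 50% RH until crawlers developed. Sprayed to runoff at 200 ppm (acetone stock diluted in 0.025% Tween 20), four plants per treatment. Live nymphs counted after 8-9 days; % control by Abbott's correction versus solvent check.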

Where two headings read alike, the source gives them in different places.

This is an account of results in patent US8853246B2 (Dow AgroSciences LLC, priority 2009, dated 2014).

As to `CN(C(=O)OCc1ccc([N+](=O)[O-])o1)c1cnc(-c2cncc(F)c2)s1` [Compound 77, [2-(5-Fluoropyridin-3-yl)-thiazol-5-yl]-methyl-carbamic acid 5-nitro-furan-2-ylmethyl ester], the pest or weed control at 200 ppm was 80 to 100% in experiment [1] (green peach aphid) and less than 80% in experiment [2] (sweetpotato whitefly-crawler).

On to `CCN(C(=O)CCSC)c1sc(-c2cncc(F)c2)nc1F` [Compound 425], for which the pest or weed control at 200 ppm in experiment [1] (green peach aphid) and in experiment [2] (sweetpotato whitefly-crawler) was 80 to 100% in each case.

Turning to `CCN(C(=O)Cc1ccsc1)c1sc(-c2cccnc2)nc1Cl` [Compound 528], the pest or weed control at 200 ppm in experiment [1] (Abbott's correction formula) was less than 80%; in experiment [2] (Abbott's correction formula), 80 to 100%.

With `Cc1nc(-c2cccnc2)sc1NC(=O)c1ccoc1` [Compound 399], the pest or weed control at 200 ppm in experiment [1] (green peach aphid) and in experiment [2] (sweetpotato whitefly-crawler) was 80 to 100% throughout.

Regarding `CCN(C(=O)CC[S+](C)[O-])c1sc(-c2cncc(F)c2)nc1C` (centres unmarked) [Compound 256], the pest or weed control at 200 ppm in experiment [1] (green peach aphid) and in experiment [2] (sweetpotato whitefly-crawler) was 80 to 100% each time.

For `CC(CC(=O)N(C)c1sc(-c2cccnc2)nc1Br)[S+](C)[O-]` (centres unmarked) [Compound 504], the pest or weed control at 200 ppm in experiment [1] (Abbott's correction formula) and in experiment [2] (Abbott's correction formula) was 80 to 100% in each case.

Regarding `Cc1nc(-c2cccnc2)sc1N(C)C(=O)C(C)N(C)C(=O)OC(C)(C)C` (centres unmarked) [Compound 294], the pest or weed control at 200 ppm in experiment [1] (green peach aphid) and in experiment [2] (sweetpotato whitefly-crawler) was less than 80% throughout.

`C=CCSCC(C)C(=O)Nc1sc(-c2cccnc2)nc1C` (centres unmarked) [Compound 224]: the pest or weed control at 200 ppm in experiment [1] (green peach aphid) and in experiment [2] (sweetpotato whitefly-crawler) was 80 to 100% in each case.

`CSC(C)CC(=O)N(C)c1sc(-c2cccnc2)nc1Br` (centres unmarked) [Compound 499]: the values for the pest or weed control at 200 ppm in experiment [1] (Abbott's correction formula) and in experiment [2] (Abbott's correction formula) were 80 to 100% and less than 80%, respectively.

Take `Cc1nc(-c2cccnc2)sc1N(C)C(=O)[C@@H](C)N(C)C(=O)OCc1ccccc1` [Compound 439]: the pest or weed control at 200 ppm in experiment [1] (Abbott's correction formula) and in experiment [2] (Abbott's correction formula) was less than 80% throughout.

For `CSCC[C@H](NC(=O)OC(C)(C)C)C(=O)N(C)c1sc(-c2cccnc2)nc1C` [Compound 281], the pest or weed control at 200 ppm in experiment [1] (green peach aphid) and in experiment [2] (sweetpotato whitefly-crawler) was less than 80% throughout.

In the case of `COCCN(C(=O)C(C)CSC)c1sc(-c2cccnc2)nc1C` (centres unmarked) [Compound 465], the figures for the pest or weed control at 200 ppm in experiment [1] (Abbott's correction formula) and in experiment [2] (Abbott's correction formula) were 80 to 100% and less than 80%, respectively.

In the case of `Cc1nc(-c2cccnc2)sc1N(C)C(=O)C(C)NC(=O)OC(C)(C)C` (centres unmarked) [Compound 282], the pest or weed control at 200 ppm in experiment [1] (green peach aphid) and in experiment [2] (sweetpotato whitefly-crawler) was 80 to 100% in each case.

For the molecule `CCN(C(=O)CCSC)c1sc(-c2cccnc2)nc1-c1ccccc1` [Compound 61], the pest or weed control at 200 ppm in experiment [1] (green peach aphid) and in experiment [2] (sweetpotato whitefly-crawler) was less than 80% in each case.

In the case of `Cc1nc(-c2cccnc2)sc1NC(=O)OC(C)(C)C` [Compound 9, (4-Methyl-2-pyridin-3-yl-thiazol-5-yl)-carbamic acid tert-butyl ester], the pest or weed control at 200 ppm in experiment [1] (green peach aphid) and in experiment [2] (sweetpotato whitefly-crawler) was 80 to 100% each time.

Consider `CN(C(=O)c1ccns1)c1sc(-c2cccnc2)nc1Cl` [Compound 346], for which, in experiment [1] (green peach aphid), the “MYZUPE 200 ppm (Corrected % Control, rating)” value is recorded as “B (Less than 80)”. Besides, the “BEMITA 200 ppm (Corrected % Control, rating)” value in experiment [2] (sweetpotato whitefly-crawler) is recorded as “A (80-100)”.

For `CSCCC(=O)N(C)c1sc(-c2cncnc2)nc1C` [Compound 51], the pest or weed control at 200 ppm in experiment [1] (green peach aphid) and in experiment [2] (sweetpotato whitefly-crawler) was 80 to 100% in each case.

Consider `CCN(C(=O)OC(C)(C)C)c1sc(-c2cncc(F)c2)nc1Br` [Compound 303], for which the pest or weed control at 200 ppm is less than 80% in experiment [1] (green peach aphid) and 80 to 100% in experiment [2] (sweetpotato whitefly-crawler).

For the molecule `CN(C(=O)C1CCN1C(=O)OC(C)(C)C)c1sc(-c2cccnc2)nc1Cl` (centres unmarked) [Compound 339], in experiment [1] (green peach aphid), the “MYZUPE 200 ppm (Corrected % Control, rating)” value was “B (Less than 80)”. Further, the “BEMITA 200 ppm (Corrected % Control, rating)” value in experiment [2] (sweetpotato whitefly-crawler) was “A (80-100)”.

Regarding `CCC(C)NC(=O)N(C)c1cnc(-c2cncc(F)c2)s1` (centres unmarked) [Compound 73, 3-sec-Butyl-1-[2-(5-fluoropyridin-3-yl)-thiazol-5-yl]-1-methyl-urea], the pest or weed control at 200 ppm in experiment [1] (green peach aphid) and in experiment [2] (sweetpotato whitefly-crawler) was 80 to 100% each time.

In the case of `CSCC(C)C(=O)N(CC(C)C)c1sc(-c2cccnc2)nc1C` (centres unmarked) [Compound 223], the pest or weed control at 200 ppm in experiment [1] (green peach aphid) and in experiment [2] (sweetpotato whitefly-crawler) was 80 to 100% each time.

Regarding `CN(C)CC(=O)N(C)c1sc(-c2cccnc2)nc1Cl` [Compound 432], the pest or weed control at 200 ppm in experiment [1] (Abbott's correction formula) and in experiment [2] (Abbott's correction formula) was less than 80% throughout.

With `CCCN(C(=O)OC(C)(C)C)c1sc(-c2cccnc2)nc1C` [Compound 284], the pest or weed control at 200 ppm in experiment [1] (green peach aphid) and in experiment [2] (sweetpotato whitefly-crawler) was 80 to 100% in each case.

Take `Cc1nc(-c2cccnc2)sc1N(C)C(=O)CN(C)S(C)(=O)=O` [Compound 433]: the pest or weed control at 200 ppm in experiment [1] (Abbott's correction formula) and in experiment [2] (Abbott's correction formula) was 80 to 100% in each case.

For the molecule `CCN(C(=O)C(C)CS(C)(=O)=O)c1sc(-c2cncc(F)c2)nc1C` (centres unmarked) [Compound 259], the “MYZUPE 200 ppm (Corrected % Control, rating)” value in experiment [1] (green peach aphid) is on record as “A (80-100)”. Also, the “BEMITA 200 ppm (Corrected % Control, rating)” value in experiment [2] (sweetpotato whitefly-crawler) is given as “A (80-100)”.

`C=CCSCC(C)C(=O)N(C)c1sc(-c2cccnc2)nc1C` (centres unmarked) [Compound 138]: the pest or weed control at 200 ppm in experiment [1] (green peach aphid) and in experiment [2] (sweetpotato whitefly-crawler) was 80 to 100% in each case.

For the molecule `CSCC(C)(C)C(=O)Nc1sc(-c2ccc(F)nc2)nc1C` [Compound 20, N-[2-(6-fluoropyridin-3-yl)-4-methyl-thiazol-5-yl]-2,2-dimethyl-3-methylsulfanyl-propionamide], the pest or weed control at 200 ppm in experiment [1] (green peach aphid) and in experiment [2] (sweetpotato whitefly-crawler) was 80 to 100% each time.

In the case of `CCN(C(=O)OC(C)(C)C)c1sc(-c2cccnc2)nc1C` [Compound 12, Ethyl-(4-methyl-2-pyridin-3-yl-thiazol-5-yl)-carbamic acid tert-butyl ester], the pest or weed control at 200 ppm in experiment [1] (green peach aphid) and in experiment [2] (sweetpotato whitefly-crawler) was 80 to 100% in each case.

Take `Cc1nc(-c2cncc(F)c2)sc1N(C)C(=O)OC(C)(C)C` [Compound 165]: the pest or weed control at 200 ppm in experiment [1] (green peach aphid) and in experiment [2] (sweetpotato whitefly-crawler) was 80 to 100% throughout.

Take `CCO[C@@H]1[C@@H](OC)[C@H](C)OC(OC(=O)Nc2sc(-c3cccnc3)nc2C)[C@@H]1OC` (mixture of isomers) [Compound 182]: the pest or weed control at 200 ppm in experiment [1] (green peach aphid) is 80 to 100%; in experiment [2] (sweetpotato whitefly-crawler), less than 80%.

On to `CC(C)(C)OC(=O)Nc1sc(-c2cncc(F)c2)nc1F` [Compound 353, [4-fluoro-2-(5-fluoro-pyridin-3-yl)-thiazol-5-yl]-carbamic acid tert-butyl ester], for which the pest or weed control at 200 ppm in experiment [1] (green peach aphid) was less than 80%; in experiment [2] (sweetpotato whitefly-crawler), 80 to 100%.

`Cc1nc(-c2cccnc2)sc1NC(=O)CC1CC1` [Compound 417]: the pest or weed control at 200 ppm in experiment [1] (green peach aphid) and in experiment [2] (sweetpotato whitefly-crawler) was 80 to 100% each time.

Regarding `CSCC(C)C(=O)N(C)c1sc(-c2cncc(F)c2)nc1Br` (centres unmarked) [Compound 354], the pest or weed control at 200 ppm in experiment [1] (green peach aphid) and in experiment [2] (sweetpotato whitefly-crawler) was 80 to 100% in each case.

On to `CSCC(Cc1ccccc1)C(=O)N(C)c1sc(-c2cccnc2)nc1Cl` (centres unmarked) [Compound 331], for which the pest or weed control at 200 ppm in experiment [1] (green peach aphid) is less than 80%; in experiment [2] (sweetpotato whitefly-crawler) it was 80 to 100%.

For `CCN(C(=O)Cc1ccc(Cl)cc1)c1sc(-c2cccnc2)nc1Cl` [Compound 575], the pest or weed control at 200 ppm in experiment [1] (Abbott's correction formula) was 80 to 100%; in experiment [2] (Abbott's correction formula), less than 80%.

For the molecule `CCN(C(=O)c1c(F)cccc1F)c1sc(-c2cccnc2)nc1Cl` [Compound 563], the pest or weed control at 200 ppm in experiment [1] (Abbott's correction formula) was 80 to 100%; in experiment [2] (Abbott's correction formula), less than 80%.

For the molecule `CCN(C(=O)CCS(C)(=O)=O)c1sc(-c2cncc(F)c2)nc1C` [Compound 257], the “MYZUPE 200 ppm (Corrected % Control, rating)” value in experiment [1] (green peach aphid) is “A (80-100)”. Further, in experiment [2] (sweetpotato whitefly-crawler), the “BEMITA 200 ppm (Corrected % Control, rating)” value is on record as “A (80-100)”.

Turning to `CCN(C(=O)OC(C)(C)C)c1sc(-c2cncc(F)c2)nc1Cl` [Compound 267], the pest or weed control at 200 ppm in experiment [1] (green peach aphid) and in experiment [2] (sweetpotato whitefly-crawler) was 80 to 100% in each case.

Consider `CC[C@H](NC(=O)OC(C)(C)C)C(=O)N(C)c1sc(-c2cccnc2)nc1C` [Compound 312], for which the pest or weed control at 200 ppm in experiment [1] (green peach aphid) and in experiment [2] (sweetpotato whitefly-crawler) was 80 to 100% throughout.

Regarding `COCC(C)OC(=O)N(C)c1sc(-c2cccnc2)nc1C` (centres unmarked) [Compound 484], the pest or weed control at 200 ppm in experiment [1] (Abbott's correction formula) was less than 80%; in experiment [2] (Abbott's correction formula) it was 80 to 100%.

With `CN(C(=O)CN(C)S(C)(=O)=O)c1sc(-c2cccnc2)nc1Cl` [Compound 434], the pest or weed control at 200 ppm in experiment [1] (Abbott's correction formula) and in experiment [2] (Abbott's correction formula) was 80 to 100% in each case.

Consider `CSCC(C)C(=O)N(C(=O)C(C)(C)CSC)c1sc(-c2cccnc2)nc1C` (centres unmarked) [Compound 195], for which the pest or weed control at 200 ppm in experiment [1] (green peach aphid) and in experiment [2] (sweetpotato whitefly-crawler) was 80 to 100% in each case.

For the molecule `CN(C(=O)CCS(C)(=O)=O)c1sc(-c2cccnc2)nc1Br` [Compound 507], the pest or weed control at 200 ppm in experiment [1] (Abbott's correction formula) and in experiment [2] (Abbott's correction formula) was 80 to 100% in each case.

Consider `CSC(C)C(=O)N(C(=O)OC(C)(C)C)c1sc(-c2cccnc2)nc1C` (centres unmarked) [Compound 357], for which the pest or weed control at 200 ppm in experiment [1] (green peach aphid) and in experiment [2] (sweetpotato whitefly-crawler) was 80 to 100% in each case.

On to `CSCC(C)C(=O)N(COC(=O)c1ccccc1)c1sc(-c2cccnc2)nc1C` (centres unmarked) [Compound 203, Benzoic acid [(2-methyl-3-methylsulfanyl-propionyl)-(4-methyl-2-pyridin-3-yl-thiazol-5-yl)-amino]-methyl ester], for which the pest or weed control at 200 ppm in experiment [1] (green peach aphid) and in experiment [2] (sweetpotato whitefly-crawler) was 80 to 100% in each case.

Consider `CSCC(=O)N(C)c1sc(-c2cccnc2)nc1C` [Compound 367], for which the results for the pest or weed control at 200 ppm in experiment [1] (green peach aphid) and in experiment [2] (sweetpotato whitefly-crawler) were 80 to 100% and less than 80%, respectively.
